Tested on: cattle tick larvae (Rhipicephalus microplus), strain Parkhurst, resistant against synthetic pyrethroids
Experiment: Rhipicephalus (Boophilus) microplus in-vitro contact test, larval cattle tick
Assay type: in vivo
Details: 5 μg/cm^2 (=500 g/ha), after 48 hours
Procedure: Rhipicephalus (Boophilus) Microplus—In-Vitro Contact Tests Larval Cattle Tick (Strain Parkhurst, Resistant Against Synthetic Pyrethroids)
(§1) 9 mg compound is solved in 1 mL acetone and diluted with acetone to the desired concentration. 250 μL of the test solution is filled in 25 mL glass test tubes and homogeneously distributed on the inner walls by rotation and tilting on a shaking device (2 h at 30 rpm). With a compound concentration of 900 ppm, an inner surface of 44.7 cm^2 and a homogeneous distribution, a dose of 5 μg/cm^2 is achieved.
After the solvent has evaporated, each test tube is filled with 20-50 cattle tick larvae (Rhipicephalus microplus), closed with a perforated lid and incubated in a horizontal position at 85% relative humidity and 27° C. in an incubator. After 48 hours efficacy is determined. The larvae are patted on the ground of the tubes and negative geotactic behavior is recorded.
An efficacy of 100% means all larvae are dead or moribund; 0% means no larvae are dead or moribund.

SMILES	efficacy (larvae dead or moribund) [%]
CC(C)N(C)C(=O)c1cc(-n2ncnc2[C@H](C)NC(=O)c2cc(OC(F)F)cc(C3CC3)c2)ncn1 [I-68]	100
C[C@H](NC(=O)c1cc(Cl)cc(Cl)c1)c1ncnn1-c1cc(C(N)=O)ncn1 [I-69]	100
Cc1nc([C@H](C)NC(=O)c2cc(C(F)(F)F)cc(C(F)(F)F)c2)n(-c2cc(C(=O)N(C)CC3CC3)ncn2)n1 [I-75]	100
C[C@H](NC(=O)c1cc(C(F)(F)F)cc(C(F)(F)F)c1)c1ncnn1-c1cc(C(=O)N(C)CC2CC2)ncn1 [I-76]	100
C[C@H](NC(=O)c1cc(F)cc(OC(F)(F)F)c1)c1ncnn1-c1cc(C(N)=O)ncn1 [I-80]	100

Tested on: adult cat fleas (Ctenocephalides felis)
Experiment: Ctenocephalides felis in-vitro contact test, adult cat flea
Assay type: in vivo
Details: 5 μg/cm^2 (=500 g/ha), after 48 hours
Procedure: Ctenocephalides felis—In-Vitro Contact Tests Adult Cat Flea
as §1
(§2) After the solvent has evaporated, each test tube is filled with 5-10 adult cat fleas (Ctenocephalides felis), closed with a perforated lid and incubated in a lying position at room temperature and relative humidity. After 48 hours efficacy is determined. The fleas are patted on the ground of the tubes and are incubated on a heating plate at 45-50° C. for at most 5 minutes. Immotile or uncoordinated moving fleas, which are not able to escape the heat by climbing upwards, are marked as dead or moribund.
An efficacy of 100% means all fleas are dead or moribund; 0% means no fleas are dead or moribund.

SMILES	efficacy (fleas dead or moribund) [%]
CC(C)N(C)C(=O)c1cc(-n2ncnc2[C@H](C)NC(=O)c2cc(OC(F)F)cc(C3CC3)c2)ncn1 [I-68]	100
C[C@H](NC(=O)c1cc(Cl)cc(Cl)c1)c1ncnn1-c1cc(C(N)=O)ncn1 [I-69]	100
Cc1nc([C@H](C)NC(=O)c2cc(C(F)(F)F)cc(C(F)(F)F)c2)n(-c2cc(C(=O)N(C)CC3CC3)ncn2)n1 [I-75]	100
C[C@H](NC(=O)c1cc(C(F)(F)F)cc(C(F)(F)F)c1)c1ncnn1-c1cc(C(=O)N(C)CC2CC2)ncn1 [I-76]	100
C[C@H](NC(=O)c1cc(F)cc(OC(F)(F)F)c1)c1ncnn1-c1cc(C(N)=O)ncn1 [I-80]	100

Tested on: adult brown dog ticks (Rhipicephalus sanguineus)
Experiment: Rhipicephalus sanguineus in-vitro contact test, adult brown dog ticks
Assay type: in vivo
Details: 48 h, read-out: efficacy (ticks dead or moribund)
Procedure: Rhipicephalus sanguineus—In-Vitro Contact Tests with Adult Brown Dog Ticks
as §1
as §2, with “brown dog ticks (Rhipicephalus sanguineus),” for “cat fleas (Ctenocephalides felis),”, “ticks” for “fleas”, “ticks,” for “fleas,”
An efficacy of 100% means all ticks are dead or moribund; 0% means no ticks are dead or moribund.

SMILES	pest or weed control at 5 µg/cm2, 500 g/ha [%]
CC(C)N(C)C(=O)c1cc(-n2ncnc2[C@H](C)NC(=O)c2cc(OC(F)F)cc(C3CC3)c2)ncn1 [I-68]	100
C[C@H](NC(=O)c1cc(Cl)cc(Cl)c1)c1ncnn1-c1cc(C(N)=O)ncn1 [I-69]	100
Cc1nc([C@H](C)NC(=O)c2cc(C(F)(F)F)cc(C(F)(F)F)c2)n(-c2cc(C(=O)N(C)CC3CC3)ncn2)n1 [I-75]	100
C[C@H](NC(=O)c1cc(C(F)(F)F)cc(C(F)(F)F)c1)c1ncnn1-c1cc(C(=O)N(C)CC2CC2)ncn1 [I-76]	100
C[C@H](NC(=O)c1cc(F)cc(OC(F)(F)F)c1)c1ncnn1-c1cc(C(N)=O)ncn1 [I-80]	100

Tested on: larvae of the banded cucumber beetle (Diabrotica balteata)
Experiment: Diabrotica balteata spray test
Assay type: in vivo
Details: 168 h, 100 g/ha (=32 μg/well), after 7 days, read-out: efficacy (seedling growth)
Procedure, shortened: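 Germinated wheat seeds on agar (5 per well) were sprayed with compound formulated in acetone/DMF and diluted in water with 1000 ppm emulsifier. Each unit was then infested with 10–20 larvae. Efficacy % was scored after 7 days as seedling growth relative to an untreated, uninfested control (100% = normal growth).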

SMILES	pest or weed control at 32 µg/disc, 100 g/ha [%]
C[C@H](NC(=O)c1cc(Cl)cc(Cl)c1)c1ncnn1-c1cc(C(N)=O)ncn1 [I-69]	100
Cc1nc([C@H](C)NC(=O)c2cc(C(F)(F)F)cc(C(F)(F)F)c2)n(-c2cc(C(=O)N(C)CC3CC3)ncn2)n1 [I-75]	100
C[C@H](NC(=O)c1cc(C(F)(F)F)cc(C(F)(F)F)c1)c1ncnn1-c1cc(C(=O)N(C)CC2CC2)ncn1 [I-76]	100
C[C@H](NC(=O)c1cc(F)cc(OC(F)(F)F)c1)c1ncnn1-c1cc(C(N)=O)ncn1 [I-80]	100

Tested on: green peach aphid (Myzus persicae)
Experiment: Myzus persicae spray test (MYZUPE)
Assay type: in vivo
Details: 120 h, 100 g/ha, after 5 days
Procedure, shortened: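 Chinese cabbage leaf disks infested with all instars of Myzus persicae were sprayed with compound formulated in acetone/dimethylformamide and diluted in water with 1000 ppm alkylarylpolyglycol ether emulsifier. Percent mortality was scored after 5 days, 100% meaning all aphids killed.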

SMILES	mortality at 100 g/ha [%]
C[C@H](NC(=O)c1cc(Cl)cc(Cl)c1)c1ncnn1-c1cc(C(N)=O)ncn1 [I-69]	70
C[C@H](NC(=O)c1cc(F)cc(OC(F)(F)F)c1)c1ncnn1-c1cc(C(N)=O)ncn1 [I-80]	100

Tested on: larvae of the southern green stink bug (Nezara viridula)
Experiment: whole plant or invertebrate
Assay type: in vivo
Details: 96 h
Procedure, shortened: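 Compound in acetone/DMF was diluted in water with 1000 ppm alkylarylpolyglycol ether emulsifier. Barley plants were sprayed with it, then infested with Nezara viridula larvae. Mortality % was scored after 4 days (100% = all killed).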

SMILES	mortality at 500 g/ha [%]
C[C@H](NC(=O)c1cc(Cl)cc(Cl)c1)c1ncnn1-c1cc(C(N)=O)ncn1 [I-69]	100
Cc1nc([C@H](C)NC(=O)c2cc(C(F)(F)F)cc(C(F)(F)F)c2)n(-c2cc(C(=O)N(C)CC3CC3)ncn2)n1 [I-75]	100
C[C@H](NC(=O)c1cc(C(F)(F)F)cc(C(F)(F)F)c1)c1ncnn1-c1cc(C(=O)N(C)CC2CC2)ncn1 [I-76]	100
C[C@H](NC(=O)c1cc(F)cc(OC(F)(F)F)c1)c1ncnn1-c1cc(C(N)=O)ncn1 [I-80]	100

Tested on: brown planthopper (Nilaparvata lugens)
Experiment: Nilaparvata lugens spray test
Assay type: in vivo
Details: 96 h
Procedure: Nilaparvata lugens—Spray Test
• Solvent: 78.0 parts by weight of acetone • 1.5 parts by weight of dimethylformamide • Emulsifier: alkylarylpolyglycol ether
To produce a suitable preparation of active compound, 1 part by weight of active compound is mixed with the stated amount of solvents and is diluted with water, containing an emulsifier concentration of 1000 ppm, to the desired concentration. Further test concentrations are prepared by dilution with emulsifier containing water.
Rice plants (Oryza sativa) are sprayed with a preparation of the active ingredient of the desired concentration and the plants are infested with the brown planthopper (Nilaparvata lugens).
After 4 days mortality in % is determined. 100% means all planthoppers have been killed and 0% means none of the planthoppers have been killed.

SMILES	mortality at 500 g/ha [%]
Cc1nc([C@H](C)NC(=O)c2cc(C(F)(F)F)cc(C(F)(F)F)c2)n(-c2cc(C(=O)N(C)CC3CC3)ncn2)n1 [I-75]	100
C[C@H](NC(=O)c1cc(C(F)(F)F)cc(C(F)(F)F)c1)c1ncnn1-c1cc(C(=O)N(C)CC2CC2)ncn1 [I-76]	100
C[C@H](NC(=O)c1cc(F)cc(OC(F)(F)F)c1)c1ncnn1-c1cc(C(N)=O)ncn1 [I-80]	100

Tested on: fall armyworm larvae (Spodoptera frugiperda)
Experiment: whole plant or invertebrate
Assay type: in vivo
Details: 168 h
Procedure, shortened: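 Maize leaf sections sprayed with compound in acetone/DMF with alkylarylpolyglycol ether emulsifier diluted in water, then infested with fall armyworm larvae once dry. Mortality (%) scored after 7 days; 100% = all caterpillars killed.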

SMILES	mortality at 100 g/ha [%]
CC(C)N(C)C(=O)c1cc(-n2ncnc2[C@H](C)NC(=O)c2cc(OC(F)F)cc(C3CC3)c2)ncn1 [I-68]	100
C[C@H](NC(=O)c1cc(Cl)cc(Cl)c1)c1ncnn1-c1cc(C(N)=O)ncn1 [I-69]	100
Cc1nc([C@H](C)NC(=O)c2cc(C(F)(F)F)cc(C(F)(F)F)c2)n(-c2cc(C(=O)N(C)CC3CC3)ncn2)n1 [I-75]	100
C[C@H](NC(=O)c1cc(C(F)(F)F)cc(C(F)(F)F)c1)c1ncnn1-c1cc(C(=O)N(C)CC2CC2)ncn1 [I-76]	100
C[C@H](NC(=O)c1cc(F)cc(OC(F)(F)F)c1)c1ncnn1-c1cc(C(N)=O)ncn1 [I-80]	100

Source: patent publication US12612386B2, “Heteroaryl-triazole compounds as pesticides” (Bayer Aktiengesellschaft, priority 2020, dated 2026)
